Assay results taken from ChEMBL document CHEMBL1150718, “Antineoplastic agents, 122. Constituents of Combretum caffrum” (1987).
≈ marks a conversion by molar mass, not a printed value. Calls of active or inactive are those of the source. The calls are words filed in the database; no cut-off is given here.

How the values were obtained:
P388 [1] = assay: Growth inhibition of mouse P388 cells; assay type: functional
[2] = Antimitotic activity against rat 9ASK cells assessed as reversal of astrocyte morphology at 1 to 100 ug/ml; assay type: functional
[3] = Antimitotic activity against rat 9ASK cells assessed as reversal of astrocyte morphology at 0.1 ug/ml; assay type: functional
P388 [4] = assay: In vivo cytotoxicity against mouse P388 cells at 5 mg/kg; assay type: functional, organism-based; set-up: dose 5 mg/kg
[5] = Cytotoxicity against rat 9ASK cells at 0.1 ug/ml; assay type: functional

| SMILES | ED50 (P388 [1]) | Activity [2] [%] | Activity [3] [%] | EC50 (P388 [1]; read-out: ED50 (the source's name)) [µg/mL] | Activity (P388 [4]) | Activity [5] [%] |
| --- | --- | --- | --- | --- | --- | --- |
| COc1cc2c(=O)oc3c(OC)c(O)cc4c(=O)oc(c1OC)c2c34 | inactive |  |  |  |  |  |
| COc1ccc(-c2cc(=O)c3c(O)cc(O)cc3o2)cc1 | inactive |  |  |  |  |  |
| COc1ccc(C[C@@H](O)c2cc(OC)c(OC)c(OC)c2)cc1O [COMBRETASTATIN] |  | 71 | 51 | 0.011 (≈ 0.0329 µM) | Active | 0 |
